# Assay results from patent US11951214B2, “Capsule formulations” (CHEMOCENTRYX, INC., priority 2018, dated 2024).
# Experiment: Pharmacokinetics of solid solution capsules in dogs
# Settings: male, beagle, dog, in vivo, po, 20 mg, PO 20 mg/dog
# Procedure: Solid Solution capsules of Compound 1 comprising 50:50 macrogol-40-glycerol hydroxystearate:PEG-4000 or 100% macrogol-40-glycerol hydroxystearate were prepared using the general procedures described in Example 4. The PEG heating steps were omitted for the 100% macrogol-40 glycerol hydroxystearate formulations. These formulations were dosed in beagle dogs (male) at 20 mg per dog to evaluate the pharmacokinetic profile. The results are summarized in Table 11 (below, and shown in FIG. 8 (50:50 macrogol-40-glycerol hydroxystearate:PEG-4000 and FIG. 9 (100% macrogol-40-glycerol hydroxystearate).
# [1] = capsule in 50:50 macrogol-40-glycerol hydroxystearate:PEG-4000, Average of T1-T3
# [2] = capsule in 50:50 macrogol-40-glycerol hydroxystearate:PEG-4000, trial T1
# [3] = capsule in 50:50 macrogol-40-glycerol hydroxystearate:PEG-4000, trial T2
# [4] = capsule in 50:50 macrogol-40-glycerol hydroxystearate:PEG-4000, trial T3
# [5] = capsule in 100% macrogol-40-glycerol hydroxystearate, Average of T1-T3
# [6] = capsule in 100% macrogol-40-glycerol hydroxystearate, trial T1
# [7] = capsule in 100% macrogol-40-glycerol hydroxystearate, trial T2
# [8] = capsule in 100% macrogol-40-glycerol hydroxystearate, trial T3
structure (smiles),measurement,setting,value
"Cc1ccc(NC(=O)[C@H]2CCCN(C(=O)c3c(C)cccc3F)[C@H]2c2ccc(NC3CCCC3)cc2)cc1C(F)(F)F [Compound 1, (2R,3 S)-2-(4-(cyclopentylamino)phenyl)-1-(2-fluoro-6-methylbenzoyl)-N-(4-methyl-3-(trifluoromethyl)phenyl)piperidine-3-carboxamide]",AUC(0-inf),[1],1630 ng·h/mL
same,AUC(0-t),[1],1580 ng·h/mL
same,Cmax,[1],429 ng/mL
same,MRT,[1],4.7 h
same,Tmax,[1],1.3 h
same,AUC(0-inf),[2],1310 ng·h/mL
same,AUC(0-t),[2],1260 ng·h/mL
same,Cmax,[2],411 ng/mL
same,MRT,[2],4.8 h
same,Tmax,[2],1 h
same,AUC(0-inf),[3],1440 ng·h/mL
same,AUC(0-t),[3],1390 ng·h/mL
same,Cmax,[3],396 ng/mL
same,MRT,[3],4.5 h
same,Tmax,[3],1 h
same,AUC(0-inf),[4],2150 ng·h/mL
same,AUC(0-t),[4],2080 ng·h/mL
same,Cmax,[4],481 ng/mL
same,MRT,[4],4.8 h
same,Tmax,[4],2 h
same,AUC(0-inf),[5],2440 ng·h/mL
same,AUC(0-t),[5],2370 ng·h/mL
same,Cmax,[5],607 ng/mL
same,MRT,[5],4.8 h
same,Tmax,[5],2.3 h
same,AUC(0-inf),[6],2660 ng·h/mL
same,AUC(0-t),[6],2470 ng·h/mL
same,Cmax,[6],590 ng/mL
same,MRT,[6],7.1 h
same,Tmax,[6],2 h
same,AUC(0-inf),[7],3020 ng·h/mL
same,AUC(0-t),[7],3000 ng·h/mL
same,Cmax,[7],604 ng/mL
same,MRT,[7],4.2 h
same,Tmax,[7],4 h
same,AUC(0-inf),[8],1660 ng·h/mL
same,AUC(0-t),[8],1650 ng·h/mL
same,Cmax,[8],628 ng/mL
same,MRT,[8],3.2 h
same,Tmax,[8],1 h
